Results on two compounds are retold here after article PMC7860073 (ACS Omega, 2021).

This test deals with sialidase-1 (Homo sapiens, UniProt Q99519). The test can be described thus: microscale thermophoresis. Type of test: binding. A general note: Microscale thermophoresis detects binding through changes in fluorescence in a small temperature gradient.

The Kd is a measure of binding affinity in units of concentration. High values mean a looser complex, low ones a tighter complex. In the case of `COc1ccc(C(=O)c2ccc(C)cc2)c(O)c1` [mexenone], the Kd stood at 8.88 µM.

`COc1cnc(NS(=O)(=O)c2ccc(N)cc2)nc1` [sulfameter] yielded a Kd of 2.15 µM.
